In PubChem BioAssay (NCI):
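96-well plates; 48 h exposure; 5 concentrations. Endpoints by linear interpolation between flanking doses. Not reached: highest tested concentration assigned. Here, GI50 denotes the concentration required for 50% inhibition of growth. TGI: concentration producing complete growth inhibition.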

Tested on: MDA-MB-468 breast
Assay: NCI anticancer screen, dose series, 48 h

Row | SMILES | GI50 [nM] | TGI [nM]
1 | c1ccc(Oc2cnc3ccccc3n2)cc1 | 46400 | > 100000
2 | CN(Cc1cccc(Cl)c1)c1ccc(CO)c(Cl)c1 | 57 | 217
3 | Nc1c(S(=O)(=O)O)cc2c(c1Cl)C(=O)c1ccccc1C2=O | > 100000 | > 100000
4 | COc1ccc(S(=O)(=O)Nc2c(/C=C\c3cc(OC)c(OC)c(OC)c3)ccc(OC)c2O)cc1OC | 75.5 | 441
5 | COc1ccc2c(c1)cn1c3ccc(OC)cc3[nH]c(=O)c21 | 63.5 | 1040
6 | Cc1nc(N(C)C)nc(-c2cccc(-c3ccn(CCN(C)C)n3)c2)c1C | 12100 | > 20000
7 | CCOc1ccc(NC2=C(Cl)C(=O)c3nc(C)ccc3C2=O)cc1 | 1490 | 2920
8 | CCOc1ccc(-n2cc(-c3ccc(N(C)C)cc3)[n+]3c2CCCCC3)cc1 | 42 | 2340
9 | C=CCOc1ccc2c(c1)CC[C@@H]1[C@@H]2CC[C@]2(C)C(=O)/C(=N/O)C[C@@H]12 | 2180 | 10600
10 | CCOC(=O)C1=CN(Cc2ccccc2)C2ON=C(c3ccc(Cl)cc3)C2C1 (stereo unspecified) | 15500 | > 100000
11 | O=C(Nc1ccc(-n2cc(-c3ccncc3)c(-c3ccc(Cl)c(O)c3)n2)cc1)c1ccc(Cl)c(C(F)(F)F)c1 | 1840 | 5680
12 | COc1cc(/C=C2\CCCC3=C2N=C2SC=NN2C3c2cc(OC)c(OC)c(OC)c2)cc(OC)c1OC (stereo unspecified) | 2330 | 7520
13 | Clc1ccc2c(NCCCNCc3ccc4c(c3)OCO4)ccnc2c1 | 2040 | 5130
14 | Nc1c(C(=O)Nc2cccc3ccccc23)sc2nc3c(cc12)CCCCCC3 | 675 | 11600
15 | CC/C(=C(/c1ccc(Cl)cc1)c1ccc(OCCCN(C)C)cc1)c1ccc(OC)cc1 | 1060 | 2260
16 | COc1cc(Nc2nccc(-c3cnn4ncccc34)n2)cc(OC)c1 | 64.3 | 217
17 | COc1cc(-c2nc3cc(Cl)c(Cl)cc3[nH]2)ccc1OCC(=O)N=Nc1c(O)[nH]c2ccccc12 | 250 | 685
18 | COc1cc(Cl)c(C)cc1NC(=O)c1cc2ccccc2cc1O | 2760 | 9740
19 | O=c1c(-c2nc3ccccc3[nH]2)cc2ccccc2n1Cc1cn(Cc2ccc(F)cc2)nn1 | 93.1 | 2780
20 | COc1cccc(-c2nn(C)c3sc(C(=O)NCCN4CCN(c5ccccc5F)CC4)cc23)c1 | 7810 | > 100000

Row | SMILES | GI50 [nM] | TGI [nM]
21 | Nc1ncnc2c1c(-c1ccc(Oc3ccccc3)cc1)nn2C[C@H]1SSC[C@H]1O | 211 | 627
22 | OC(c1cc2c(Cl)cc(Cl)cc2c2cc(C(F)(F)F)ccc12)C1CCCCN1 (stereo unspecified) | 1710 | 3220
23 | O=C1COCCN1c1ccc(NCc2cn(Cc3ccc(F)cc3)c3ccccc23)cc1 | 23.9 | 78.3
24 | COc1cc(-c2cc(C(=O)N3CCN(C(=O)c4ccccc4NCc4cccs4)CC3)nc3cc(-c4ccccc4)nn23)cc(OC)c1OC | 2710 | 14000
25 | O=C1/C=C/[C@@H](O)[C@@H]2C[C@@H](O)C[C@H]2/C=C/CCCCO1 | 167 | 
26 | O=C(/C=C/c1ccco1)c1cccc(Nc2nc(Nc3ccccc3)nc(Nc3ccccc3)n2)c1 | 2800 | 28900
27 | C=C(C=O)[C@@H]1CC=C(C=O)CC1 | 2800 | > 100000
28 | COC(=O)/C=C/c1cc(OC)c2c(c1)[C@@H](C(=O)OC)[C@H](c1ccc(OC)c(OC)c1)O2 | 1710 | > 100000
29 | Cn1cc(C2=C(c3cn(CCCN/C(N)=N\[N+](=O)[O-])c4ccccc34)C(=O)NC2=O)c2ccccc21 | 2090 | 9740
30 | N[C@@H](Cc1ccc(N(CCCl)CCCl)cc1)C(=O)O | 3840 | 23700
31 | Nc1nc(-c2ccccc2Cl)cc(-c2ccc(Cl)cc2Cl)n1 | 2180 | 8660
32 | COc1ccc(-c2nn(C(=O)c3cc(OC)c(OC)c(OC)c3)c3cc(N)ccc23)cc1 | < 14.1 | 190
33 | CCCCCCCCCCCC(=O)[O][Sn]([CH2]CCC)([CH2]CCC)[CH2]CCC | 28 | 78.7
34 | CCc1cc(Cc2cc(CC)cc(C(C)(C)C)c2O)c(O)c(C(C)(C)C)c1 | 3540 | 13200
35 | COc1ccc(/C=N/C2=C(C#N)C(c3ccccc3)c3ccc4ccccc4c3O2)cc1 (stereo unspecified) | 454 | 
36 | CCCCCCOc1ccc(/C=N/Nc2cc(C)nc3ccc(Br)cc23)cc1 | 1700 | 3220
37 | N=C(N)c1ccc(-c2ccc(-c3ccccc3)o2)o1 | 1640 | 4190
38 | NC(CSC(c1ccccc1)(c1ccccc1)c1ccc(Br)cc1)C(=O)O (stereo unspecified) | 116 | > 31600
39 | O=c1c(Br)ccc(Br)cc1Br | 830 | 2620
